ChEMBL document CHEMBL6103575, “Design, synthesis and evaluation of (E)-1-(4-(2-(1H-pyrazol-5-yl)vinyl)phenyl) derivatives as next generation selective RET inhibitors overcoming RET solvent front mutations (G810C/R)” (Eur J Med Chem, 2025)

Key:
[1] = Induction of cell cycle arrest in mouse BaF3 cells harboring CCDC6-RET assessed as accumulation of cells at G0/G1 phase at 300 nM incubated for 24 hrs by propidium iodide staining based analysis (reference value: 52.51%); type: functional
[2] = Induction of apoptosis in mouse BaF3 cells harboring CCDC6-RET G810R mutant assessed as necrotic cells at 10 nM incubated for 48 hrs by Annexin V-PE staining based flow cytometry analysis (Rvb =0.30%); type: functional
[3] = Induction of cell cycle arrest in mouse BaF3 cells harboring CCDC6-RET assessed as accumulation of cells at G0/G1 phase at 100 nM incubated for 24 hrs by propidium iodide staining based analysis (reference value: 52.51%); type: functional
[4] = Induction of cell cycle arrest in mouse BaF3 cells harboring CCDC6-RET G810C mutant assessed as accumulation of cells at G0/G1 phase at 30 nM incubated for 24 hrs by propidium iodide staining based analysis (reference value: 52.11%); type: functional
[5] = Induction of apoptosis in mouse BaF3 cells harboring CCDC6-RET G810C mutant assessed as late apoptotic cells at 10 nM incubated for 48 hrs by Annexin V-PE staining based flow cytometry analysis (Rvb =4.30%); type: functional
BaF3 = assay: Inhibition of SHC phosphorylation in mouse BaF3 cells harboring CCDC6-RET G810C mutant incubated for 12 hrs by Western blotting analysis; type: cell-based; details: dose <= 300.0 nM
[6] = Induction of cell cycle arrest in mouse BaF3 cells harboring CCDC6-RET G810R mutant assessed as accumulation of cells at G0/G1 phase at 30 nM incubated for 24 hrs by propidium iodide staining based analysis (reference value: 52.63%); type: functional
[7] = molecular target: BDNF/NT-3 growth factors receptor (Homo sapiens, UniProt Q16620); assay: Inhibition of TRKB (unknown origin) at 1 uM relative to control
Sequence of BDNF/NT-3 growth factors receptor (Q16620 32-822 limits assumed): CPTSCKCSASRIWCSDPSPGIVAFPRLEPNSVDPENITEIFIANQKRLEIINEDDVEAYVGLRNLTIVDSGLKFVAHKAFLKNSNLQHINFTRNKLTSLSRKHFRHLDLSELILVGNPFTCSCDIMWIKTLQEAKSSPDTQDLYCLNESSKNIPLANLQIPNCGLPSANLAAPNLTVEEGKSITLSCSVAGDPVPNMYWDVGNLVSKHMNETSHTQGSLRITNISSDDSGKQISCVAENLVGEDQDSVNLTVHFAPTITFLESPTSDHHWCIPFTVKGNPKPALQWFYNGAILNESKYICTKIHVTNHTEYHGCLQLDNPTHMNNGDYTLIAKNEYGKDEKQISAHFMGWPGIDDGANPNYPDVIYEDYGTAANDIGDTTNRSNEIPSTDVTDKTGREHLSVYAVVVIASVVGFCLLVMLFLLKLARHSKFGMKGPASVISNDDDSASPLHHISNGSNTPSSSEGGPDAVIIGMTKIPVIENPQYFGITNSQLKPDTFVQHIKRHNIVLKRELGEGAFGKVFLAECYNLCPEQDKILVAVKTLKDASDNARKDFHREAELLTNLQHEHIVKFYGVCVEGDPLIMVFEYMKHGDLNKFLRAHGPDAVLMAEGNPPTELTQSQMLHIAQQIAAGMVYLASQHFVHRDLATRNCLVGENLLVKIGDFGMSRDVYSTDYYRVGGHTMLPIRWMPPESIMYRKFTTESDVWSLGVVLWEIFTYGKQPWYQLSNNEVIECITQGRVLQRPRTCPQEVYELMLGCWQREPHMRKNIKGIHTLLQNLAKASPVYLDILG

Question: Which Activity [1] does the source give for COc1cncc(-c2cn[nH]c2/C=C/c2ccc(NC(=O)Nc3cc(C(C)(C)C(F)(F)F)on3)c(Cl)c2)c1 here?
Answer: 84.1%

Question: And the Activity [2]?
Answer: 0.17%

Question: What about the Activity [3] of the same molecule?
Answer: 69.43%

Question: And the Activity [4]?
Answer: 57.08%

Question: And the Activity [5]?
Answer: 3.24%

Question: And the inhibition (BaF3)?
Answer: Dose-dependent-effect

Question: What about the Activity [6] of the same molecule?
Answer: 53.02%

Question: What about the inhibition [7] of the same molecule?
Answer: 100%
